Values of other authors, collected in article PMC7395068, “The evolution of strategies to minimise the risk of human drug-induced liver injury (DILI) in drug discovery and development” (Archives of Toxicology, 2020).
Like-named read-outs stand apart in the source and are kept apart here.

Legend:
[1] = tested on: HepG2 cells; conditions: cited from earlier work
[2] = cited from earlier work
[3] = ref Chen 2016; cited from earlier work
[4] = tested on: human hepatocytes; conditions: In vitro Assay; ref Xu 2008; cited from earlier work
[5] = tested on: PHH; conditions: In vitro Assay; ref Proctor 2017; cited from earlier work
[6] = tested on: hLiMTs; conditions: In vitro Assay; ref Proctor 2017; cited from earlier work
[7] = tested on: PHH spheroids; conditions: cited from earlier work
[8] = tested on: HepG2 C3A spheroid, BSEP, Glu/Gal in HepG2 cells, bioactivation; conditions: In vitro Assay; ref Williams 2019; cited from earlier work
[9] = tested on: HepG2 cells; conditions: In vitro Assay; ref O'Brien 2006; cited from earlier work
[10] = tested on: isolated mouse liver mitochondria; conditions: In vitro Assay; ref Porceddu 2012; cited from earlier work
[11] = assignment in Tolosa 2012, ref Tolosa 2012
[12] = In vitro Assay, ref Tolosa 2012

[Cl][Hg][Cl] [mercury ii chloride]
Structural based (HCI), In vitro Assay ([1]; HepG2 HCI, ref Tolosa 2012): +VE | In vivo DILI [2, 11]: +VE

CN(CCCC(=O)c1cccnc1)N=O [nnk]
Structural based (HCI), In vitro Assay ([1]; HepG2 HCI, ref Tolosa 2012): +VE | In vivo DILI [2, 11]: +VE

Cc1ccccc1C(OCCN(C)C)c1ccccc1 (centres unmarked) [orphenadrine]
DILI +VE (5-8), DILI -VE (-4) [3]: -VE | DILI severity category [3]: vNo-DILI-Concern | Structural based (HCI) [1, 12]: +VE | Structural based (HCI) [4]: -VE | PHH ATP <100uM [5]: -VE | hLiMTs ATP <100uM [6]: -VE | hLiMTs ATP <20 x Cmax ([7]; In vitro Assay, ref Vorrink 2018): -VE | Bayesian Machine Learning [8]: -VE | In vivo DILI ([2]; […]): -VE | In vivo DILI ([2]; ref Proctor 2017): -VE | In vivo DILI ([2]; ref Tolosa 2012): +VE | In vivo DILI ([2]; ref Vorrink 2018): -VE | In vivo DILI ([2]; ref Williams 2019): -VE | In vivo DILI ([2]; ref Xu 2008): -VE

C[n+]1ccc(-c2cc[n+](C)cc2)cc1 [paraquat]
Structural based (HCI), In vitro Assay ([1]; HepG2 HCI, ref Tolosa 2012): +VE | In vivo DILI [2, 11]: +VE

Oc1c(Cl)c(Cl)c(Cl)c(Cl)c1Cl [pentachlorophenol]
Structural based (HCI) [1]: +VE | In vivo DILI ([2]; in vivo): +VE

CCCCOCCOCCOCc1cc2c(cc1CCC)OCO2 [piperonyl butoxide]
Structural based (HCI), In vitro Assay ([1]; HepG2 HCI, ref Tolosa 2012): +VE | In vivo DILI [2, 11]: +VE

OC[C@@H](O)[C@@H](O)[C@H](O)[C@@H](O)CO [sorbitol]
DILI +VE (5-8), DILI -VE (-4) [3]: -VE | DILI severity category [3]: vNo-DILI-Concern | Structural based (HCI) [1, 12]: -VE | Structural based (HCI) [4]: -VE | In vivo DILI ([2]; ref O'Brien 2006): -VE | In vivo DILI ([2]; ref Tolosa 2012): -VE | In vivo DILI ([2]; ref Xu 2008): -VE

C[C@H](CCC(=O)NCCS(=O)(=O)O)[C@H]1CC[C@H]2[C@@H]3CC[C@@H]4C[C@H](O)CC[C@]4(C)[C@H]3CC[C@]12C [taurolithocholate]
Structural based (HCI), In vitro Assay ([1]; HepG2 HCI, ref Tolosa 2012): +VE | In vivo DILI [2, 11]: +VE

CC(C)(C)OO [tert-butyl hydroperoxide]
Structural based (HCI), In vitro Assay [1]: +VE | In vivo DILI ([2]; in vivo): +VE

CC(=N)S [thioacetamide]
Structural based (HCI) [1, 12]: -VE | Structural based (HCI) [4]: -VE | In vivo DILI ([2]; ref O'Brien 2006): +VE | In vivo DILI ([2]; ref Tolosa 2012): +VE | In vivo DILI ([2]; ref Xu 2008): +VE

CCN(CC)CCOc1ccc2c(c1)C(=O)c1cc(OCCN(CC)CC)ccc1-2 [tilorone]
Structural based (HCI), In vitro Assay ([1]; HepG2 HCI, ref Tolosa 2012): +VE | In vivo DILI [2, 11]: +VE

aflatoxin b1
Structural based (HCI) [1]: +VE | hLiMTs ATP <20 x Cmax [7]: +VE (key: +VE: IC20 < 20 × Cmax.tot cut-off) | In vivo DILI ([2]; in vivo): +VE

gentamycin
Structural based (HCI) [9]: +VE | Structural based (HCI) [1, 12]: -VE | In vivo DILI ([2]; […]): -VE | In vivo DILI ([2]; ref O'Brien 2006): -VE | In vivo DILI ([2]; ref Porceddu 2012): +VE | In vivo DILI ([2]; ref Tolosa 2012): -VE | in vitro data EC2<=1x Cmax [10]: +VE | in vitro data EC20<=2uM [10]: +VE
